Source: the kinase profiling compilation of Christmann-Franck et al. (2016)

Legend:
CHKA (human) = CHKA (human) (UniProt P35790); assay: ADP detection assay-Luminescence
CHKB (human) = CHKB (human) (UniProt Q9Y259); assay: ADP detection assay-Luminescence
DGKB (human) = DGKB (human) (UniProt Q9Y6T7); assay: ADP detection assay-Luminescence
DGKG (human) = DGKG (human) (UniProt P49619); assay: ADP detection assay-Luminescence
DGKZ (human) = DGKZ (human) (UniProt Q13574); assay: ADP detection assay-Luminescence
Sequence of DGKZ (human) (Q13574 whole entry, looked up): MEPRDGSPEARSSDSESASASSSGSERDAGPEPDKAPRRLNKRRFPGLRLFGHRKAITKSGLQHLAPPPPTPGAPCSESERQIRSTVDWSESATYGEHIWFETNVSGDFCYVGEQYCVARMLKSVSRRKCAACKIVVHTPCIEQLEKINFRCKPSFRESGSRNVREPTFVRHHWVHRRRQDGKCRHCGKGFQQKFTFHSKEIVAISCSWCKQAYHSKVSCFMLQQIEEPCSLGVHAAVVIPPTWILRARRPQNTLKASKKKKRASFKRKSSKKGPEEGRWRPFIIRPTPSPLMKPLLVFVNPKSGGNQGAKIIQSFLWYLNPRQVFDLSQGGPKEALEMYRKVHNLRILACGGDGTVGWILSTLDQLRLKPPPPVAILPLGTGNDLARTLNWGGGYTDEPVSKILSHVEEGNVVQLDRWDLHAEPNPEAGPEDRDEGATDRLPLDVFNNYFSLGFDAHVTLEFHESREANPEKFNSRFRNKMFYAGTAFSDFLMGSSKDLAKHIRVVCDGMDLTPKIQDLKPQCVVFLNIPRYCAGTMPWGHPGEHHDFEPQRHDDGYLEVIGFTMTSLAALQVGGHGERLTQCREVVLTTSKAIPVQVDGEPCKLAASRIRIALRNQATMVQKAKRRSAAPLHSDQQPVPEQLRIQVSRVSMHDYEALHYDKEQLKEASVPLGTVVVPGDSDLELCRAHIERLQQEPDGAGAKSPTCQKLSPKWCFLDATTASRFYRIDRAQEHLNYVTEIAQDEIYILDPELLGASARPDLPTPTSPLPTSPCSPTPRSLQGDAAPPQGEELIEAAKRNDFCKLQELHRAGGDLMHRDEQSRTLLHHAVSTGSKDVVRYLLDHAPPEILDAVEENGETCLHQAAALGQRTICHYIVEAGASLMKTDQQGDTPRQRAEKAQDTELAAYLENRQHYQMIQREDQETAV

PI4KA (human) = PI4KA (human) (UniProt P42356); assay: ADP detection assay-Luminescence
Sequence of PI4KA (human) (P42356 whole entry, looked up): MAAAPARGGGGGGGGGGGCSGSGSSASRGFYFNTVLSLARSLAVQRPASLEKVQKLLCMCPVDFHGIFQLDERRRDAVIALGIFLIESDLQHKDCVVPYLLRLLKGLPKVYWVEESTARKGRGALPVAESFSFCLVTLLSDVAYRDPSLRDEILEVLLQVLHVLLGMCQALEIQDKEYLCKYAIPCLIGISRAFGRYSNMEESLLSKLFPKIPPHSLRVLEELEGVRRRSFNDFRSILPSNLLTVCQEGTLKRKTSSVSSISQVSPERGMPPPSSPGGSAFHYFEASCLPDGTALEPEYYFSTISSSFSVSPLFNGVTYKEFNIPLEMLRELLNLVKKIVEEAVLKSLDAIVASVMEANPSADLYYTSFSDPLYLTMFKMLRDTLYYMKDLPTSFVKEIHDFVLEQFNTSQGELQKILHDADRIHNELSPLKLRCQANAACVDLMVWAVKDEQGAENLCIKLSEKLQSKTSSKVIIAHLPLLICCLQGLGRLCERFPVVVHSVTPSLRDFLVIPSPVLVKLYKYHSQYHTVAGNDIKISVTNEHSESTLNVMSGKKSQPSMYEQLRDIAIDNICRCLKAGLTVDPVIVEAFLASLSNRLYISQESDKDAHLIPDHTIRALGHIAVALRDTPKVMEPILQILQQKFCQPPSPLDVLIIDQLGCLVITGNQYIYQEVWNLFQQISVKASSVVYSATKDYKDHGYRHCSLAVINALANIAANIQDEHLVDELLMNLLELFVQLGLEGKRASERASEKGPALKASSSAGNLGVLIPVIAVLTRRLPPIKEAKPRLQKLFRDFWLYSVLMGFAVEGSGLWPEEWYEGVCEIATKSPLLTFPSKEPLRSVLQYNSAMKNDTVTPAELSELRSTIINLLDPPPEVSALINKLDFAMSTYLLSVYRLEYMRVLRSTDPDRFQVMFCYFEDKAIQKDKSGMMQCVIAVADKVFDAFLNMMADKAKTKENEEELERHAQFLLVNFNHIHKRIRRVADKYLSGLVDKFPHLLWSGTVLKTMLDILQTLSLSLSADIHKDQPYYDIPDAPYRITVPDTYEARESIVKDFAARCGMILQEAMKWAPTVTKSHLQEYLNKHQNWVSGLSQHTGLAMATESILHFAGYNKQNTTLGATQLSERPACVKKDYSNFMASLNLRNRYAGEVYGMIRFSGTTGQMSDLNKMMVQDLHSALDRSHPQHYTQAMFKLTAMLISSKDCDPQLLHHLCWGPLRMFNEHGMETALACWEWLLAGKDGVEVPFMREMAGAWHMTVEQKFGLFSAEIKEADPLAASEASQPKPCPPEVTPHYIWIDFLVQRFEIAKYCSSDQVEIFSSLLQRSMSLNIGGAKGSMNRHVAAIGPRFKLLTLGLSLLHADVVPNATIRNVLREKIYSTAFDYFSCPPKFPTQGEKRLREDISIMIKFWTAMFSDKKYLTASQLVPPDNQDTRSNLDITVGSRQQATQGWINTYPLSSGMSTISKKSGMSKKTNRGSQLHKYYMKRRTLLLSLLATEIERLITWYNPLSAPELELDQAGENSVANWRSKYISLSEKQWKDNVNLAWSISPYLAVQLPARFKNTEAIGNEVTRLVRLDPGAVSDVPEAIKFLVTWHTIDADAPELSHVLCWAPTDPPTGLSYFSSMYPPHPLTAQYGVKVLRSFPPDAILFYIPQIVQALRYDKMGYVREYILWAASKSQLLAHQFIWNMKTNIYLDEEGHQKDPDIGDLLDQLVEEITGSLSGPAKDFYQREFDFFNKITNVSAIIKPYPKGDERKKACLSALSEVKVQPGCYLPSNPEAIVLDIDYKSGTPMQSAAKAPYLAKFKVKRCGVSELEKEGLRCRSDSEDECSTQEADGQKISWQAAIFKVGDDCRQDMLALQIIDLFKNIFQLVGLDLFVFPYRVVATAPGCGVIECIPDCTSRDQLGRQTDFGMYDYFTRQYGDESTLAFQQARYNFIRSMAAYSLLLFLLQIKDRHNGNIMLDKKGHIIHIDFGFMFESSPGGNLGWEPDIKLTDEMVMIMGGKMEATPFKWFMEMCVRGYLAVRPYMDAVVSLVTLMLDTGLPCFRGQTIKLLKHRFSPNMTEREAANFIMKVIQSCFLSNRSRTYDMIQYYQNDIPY

PI4KB (human) = PI4KB (human) (UniProt Q9UBF8); assay: ADP detection assay-Luminescence
PIK3C3 (human) = PIK3C3 (human) (UniProt Q8NEB9); assay: ADP detection assay-Luminescence
PIK3CA PIK3R1 (human) = PIK3CA PIK3R1 (human) (UniProt P27986+P42336); assay: ADP detection assay-Luminescence
PIK3CB PIK3R1 (human) = PIK3CB PIK3R1 (human) (UniProt P27986+P42338); assay: ADP detection assay-Luminescence
PIK3CD PIK3R1 (human) = PIK3CD PIK3R1 (human) (UniProt O00329+P27986); assay: ADP detection assay-Luminescence
PIK3CG (human) = PIK3CG (human) (UniProt P48736); assay: ADP detection assay-Luminescence
PIP4K2A (human) = PIP4K2A (human) (UniProt P48426); assay: ADP detection assay-Luminescence
Sequence of PIP4K2A (human) (P48426 whole entry, looked up): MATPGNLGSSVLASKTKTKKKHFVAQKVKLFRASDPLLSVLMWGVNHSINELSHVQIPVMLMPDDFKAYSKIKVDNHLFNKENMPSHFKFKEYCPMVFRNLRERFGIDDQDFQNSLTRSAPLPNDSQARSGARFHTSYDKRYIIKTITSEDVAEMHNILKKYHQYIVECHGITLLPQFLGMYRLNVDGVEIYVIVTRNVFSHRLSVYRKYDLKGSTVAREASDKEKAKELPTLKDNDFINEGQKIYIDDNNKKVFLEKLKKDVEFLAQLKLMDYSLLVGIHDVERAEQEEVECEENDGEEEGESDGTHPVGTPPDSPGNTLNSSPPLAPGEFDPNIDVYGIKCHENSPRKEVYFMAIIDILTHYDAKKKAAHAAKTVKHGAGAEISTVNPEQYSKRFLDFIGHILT

SPHK1 (human) = SPHK1 (human) (UniProt Q9NYA1); assay: ADP detection assay-Luminescence
SPHK2 (human) = SPHK2 (human) (UniProt Q9NRA0); assay: ADP detection assay-Luminescence
CHEK1 (human) = CHEK1 (human) (UniProt O14757); assay: radiometric filter-binding kinase assay
Sequence of CHEK1 (human) (O14757 whole entry, looked up): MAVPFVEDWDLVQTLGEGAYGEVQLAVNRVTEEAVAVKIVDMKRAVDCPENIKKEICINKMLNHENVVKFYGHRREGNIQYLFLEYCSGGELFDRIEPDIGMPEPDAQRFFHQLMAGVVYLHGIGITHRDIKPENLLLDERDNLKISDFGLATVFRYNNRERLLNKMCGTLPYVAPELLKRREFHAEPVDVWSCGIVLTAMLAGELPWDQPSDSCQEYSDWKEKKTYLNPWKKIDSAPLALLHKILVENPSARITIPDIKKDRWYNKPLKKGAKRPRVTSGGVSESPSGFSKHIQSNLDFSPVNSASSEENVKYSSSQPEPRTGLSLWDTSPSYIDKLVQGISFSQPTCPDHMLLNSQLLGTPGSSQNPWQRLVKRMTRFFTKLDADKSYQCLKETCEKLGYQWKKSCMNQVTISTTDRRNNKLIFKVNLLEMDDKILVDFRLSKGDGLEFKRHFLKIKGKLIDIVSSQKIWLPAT

CHEK2 (human) = CHEK2 (human) (UniProt O96017); assay: radiometric filter-binding kinase assay
IKBKE (human) = IKBKE (human) (UniProt Q14164); assay: radiometric filter-binding kinase assay
INSRR (human) = INSRR (human) (UniProt P14616); assay: radiometric filter-binding kinase assay
MAPK13 (human) = MAPK13 (human) (UniProt O15264); assay: radiometric filter-binding kinase assay
MAPK8 (human) = MAPK8 (human) (UniProt P45983); assay: radiometric filter-binding kinase assay
MINK1 (human) = MINK1 (human) (UniProt Q8N4C8); assay: radiometric filter-binding kinase assay
NEK6 (human) = NEK6 (human) (UniProt Q9HC98); assay: radiometric filter-binding kinase assay
Sequence of NEK6 (human) (Q9HC98 whole entry, looked up): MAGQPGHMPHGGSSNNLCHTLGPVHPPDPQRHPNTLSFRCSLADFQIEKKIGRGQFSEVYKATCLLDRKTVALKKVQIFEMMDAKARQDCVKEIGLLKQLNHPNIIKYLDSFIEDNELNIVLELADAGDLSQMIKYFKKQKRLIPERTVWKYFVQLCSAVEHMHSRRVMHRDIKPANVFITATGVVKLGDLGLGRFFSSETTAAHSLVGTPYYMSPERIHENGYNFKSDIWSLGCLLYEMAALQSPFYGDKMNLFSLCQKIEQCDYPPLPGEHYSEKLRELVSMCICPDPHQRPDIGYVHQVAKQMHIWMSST

NUAK1 (human) = NUAK1 (human) (UniProt O60285); assay: radiometric filter-binding kinase assay
[1] = test system: PAK2 (human), Q13177 [T402E]; assay: radiometric filter-binding kinase assay
PAK7 (human) = PAK7 (human) (UniProt Q9P286); assay: radiometric filter-binding kinase assay
Sequence of PAK7 (human) (Q9P286 whole entry, looked up): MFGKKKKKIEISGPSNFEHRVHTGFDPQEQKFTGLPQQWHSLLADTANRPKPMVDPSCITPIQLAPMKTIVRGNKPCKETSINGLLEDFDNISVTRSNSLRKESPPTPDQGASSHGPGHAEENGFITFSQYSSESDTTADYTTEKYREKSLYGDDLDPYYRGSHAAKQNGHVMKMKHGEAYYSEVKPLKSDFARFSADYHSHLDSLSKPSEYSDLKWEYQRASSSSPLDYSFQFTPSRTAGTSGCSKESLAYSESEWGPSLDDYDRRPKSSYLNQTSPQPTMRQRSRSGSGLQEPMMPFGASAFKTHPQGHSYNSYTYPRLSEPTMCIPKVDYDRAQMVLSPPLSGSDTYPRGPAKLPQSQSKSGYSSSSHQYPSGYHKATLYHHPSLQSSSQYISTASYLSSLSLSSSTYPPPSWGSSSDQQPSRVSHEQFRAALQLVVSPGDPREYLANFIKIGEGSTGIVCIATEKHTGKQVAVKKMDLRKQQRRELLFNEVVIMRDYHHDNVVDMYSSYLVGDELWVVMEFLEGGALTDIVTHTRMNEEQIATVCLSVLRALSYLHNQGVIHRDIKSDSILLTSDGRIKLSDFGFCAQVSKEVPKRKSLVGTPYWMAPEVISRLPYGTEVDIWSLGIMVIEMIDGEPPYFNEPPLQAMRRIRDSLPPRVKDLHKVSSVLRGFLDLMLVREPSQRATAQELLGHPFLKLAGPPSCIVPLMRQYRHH

[2] = target: PRKAA1 PRKAB2 PRKAG1 (human) (UniProt O43741+Q13131+P54619); assay: radiometric filter-binding kinase assay
PRKCZ (human) = PRKCZ (human) (UniProt Q05513); assay: radiometric filter-binding kinase assay
ROCK2 (rat) = assay: radiometric filter-binding kinase assay; settings: accession and sequence are those of the human protein

CNc1nc(-c2ccc3c(N)n[nH]c3c2)cc(N2C[C@@H](C(=O)NC3CCCCC3)CC[C@H]2C)n1
residual activity (CHKA (human); compound 0.1 µM): 102% | residual activity (CHKA (human); compound 1.0 µM): 94% | residual activity (CHKA (human); compound 10.0 µM): 101% | residual activity (CHKB (human); compound 0.1 µM): 113% | residual activity (CHKB (human); compound 1.0 µM): 95% | residual activity (CHKB (human); compound 10.0 µM): 87% | residual activity (DGKB (human); compound 0.1 µM): 99% | residual activity (DGKB (human); compound 1.0 µM): 100% | residual activity (DGKB (human); compound 10.0 µM): 93% | residual activity (DGKG (human); compound 0.1 µM): 99% | residual activity (DGKG (human); compound 1.0 µM): 100% | residual activity (DGKG (human); compound 10.0 µM): 101% | residual activity (DGKZ (human); compound 0.1 µM): 110% | residual activity (DGKZ (human); compound 1.0 µM): 86% | residual activity (DGKZ (human); compound 10.0 µM): 101% | residual activity (PI4KA (human); compound 0.1 µM): 100% | residual activity (PI4KA (human); compound 1.0 µM): 94% | residual activity (PI4KA (human); compound 10.0 µM): 103% | residual activity (PI4KB (human); compound 0.1 µM): 99% | residual activity (PI4KB (human); compound 1.0 µM): 89% | residual activity (PI4KB (human); compound 10.0 µM): 97% | residual activity (PIK3C3 (human); compound 0.1 µM): 96% | residual activity (PIK3C3 (human); compound 1.0 µM): 102% | residual activity (PIK3C3 (human); compound 10.0 µM): 89% | residual activity (PIK3CA PIK3R1 (human); compound 0.1 µM): 106% | residual activity (PIK3CA PIK3R1 (human); compound 1.0 µM): 105% | residual activity (PIK3CA PIK3R1 (human); compound 10.0 µM): 104% | residual activity (PIK3CB PIK3R1 (human); compound 0.1 µM): 102% | residual activity (PIK3CB PIK3R1 (human); compound 1.0 µM): 108% | residual activity (PIK3CB PIK3R1 (human); compound 10.0 µM): 97% | residual activity (PIK3CD PIK3R1 (human); compound 0.1 µM): 119% | residual activity (PIK3CD PIK3R1 (human); compound 1.0 µM): 104% | residual activity (PIK3CD PIK3R1 (human); compound 10.0 µM): 73% | residual activity (PIK3CG (human); compound 0.1 µM): 98% | residual activity (PIK3CG (human); compound 1.0 µM): 83% | residual activity (PIK3CG (human); compound 10.0 µM): 70% | residual activity (PIP4K2A (human); compound 0.1 µM): 102% | residual activity (PIP4K2A (human); compound 1.0 µM): 97% | residual activity (PIP4K2A (human); compound 10.0 µM): 86% | residual activity (SPHK1 (human); compound 0.1 µM): 106% | residual activity (SPHK1 (human); compound 1.0 µM): 102% | residual activity (SPHK1 (human); compound 10.0 µM): 94% | residual activity (SPHK2 (human); compound 0.1 µM): 103% | residual activity (SPHK2 (human); compound 1.0 µM): 100% | residual activity (SPHK2 (human); compound 10.0 µM): 91% | residual activity (CHEK1 (human); compound 0.01 µM): 111% | residual activity (CHEK1 (human); compound 0.1 µM): 106% | residual activity (CHEK1 (human); compound 1.0 µM): 104% | residual activity (CHEK2 (human); compound 0.01 µM): 129% | residual activity (CHEK2 (human); compound 0.1 µM): 121% | residual activity (IKBKE (human); compound 0.01 µM): 114% | residual activity (IKBKE (human); compound 0.1 µM): 97% | residual activity (IKBKE (human); compound 1.0 µM): 74% | residual activity (INSRR (human); compound 0.01 µM): 111% | residual activity (INSRR (human); compound 0.1 µM): 111% | residual activity (INSRR (human); compound 1.0 µM): 109% | residual activity (MAPK13 (human); compound 0.01 µM): 106% | residual activity (MAPK13 (human); compound 0.1 µM): 113% | residual activity (MAPK13 (human); compound 1.0 µM): 108% | residual activity (MAPK8 (human); compound 0.01 µM): 92% | residual activity (MAPK8 (human); compound 0.1 µM): 108% | residual activity (MAPK8 (human); compound 1.0 µM): 99% | residual activity (MINK1 (human); compound 0.01 µM): 121% | residual activity (MINK1 (human); compound 0.1 µM): 110% | residual activity (MINK1 (human); compound 1.0 µM): 105% | residual activity (NEK6 (human); compound 0.01 µM): 98% | residual activity (NEK6 (human); compound 0.1 µM): 101% | residual activity (NEK6 (human); compound 1.0 µM): 97% | residual activity (NUAK1 (human); compound 0.01 µM): 120% | residual activity (NUAK1 (human); compound 0.1 µM): 105% | residual activity (NUAK1 (human); compound 1.0 µM): 47% | residual activity ([1]; compound 0.01 µM): 105% | residual activity ([1]; compound 0.1 µM): 119% | residual activity ([1]; compound 1.0 µM): 105% | residual activity (PAK7 (human); compound 0.01 µM): 97% | residual activity (PAK7 (human); compound 0.1 µM): 101% | residual activity (PAK7 (human); compound 1.0 µM): 94% | residual activity ([2]; compound 0.01 µM): 107% | residual activity ([2]; compound 0.1 µM): 111% | residual activity ([2]; compound 1.0 µM): 87% | residual activity (PRKCZ (human); compound 0.01 µM): 113% | residual activity (PRKCZ (human); compound 0.1 µM): 105% | residual activity (PRKCZ (human); compound 1.0 µM): 72% | residual activity (ROCK2 (rat); compound 0.01 µM): 96% | residual activity (ROCK2 (rat); compound 0.1 µM): 92% | residual activity (ROCK2 (rat); compound 1.0 µM): 70%
